From paper PMC7316778 (Nature Communications, 2020)
Values joined by “and” are separate entries in the source; they are usually repeats but may differ in a detail not shown here. Identical values can stand only once. Like-named read-outs stand apart in the source and are kept apart here.

Tests used:
[1] = molecular target: EPHA7 (Homo sapiens, UniProt Q15375); experiment: SelectScreen kinase assay; settings: 1 h, 1 μM WEL028, 1 h preincubation
Description: (§1) Selectivity profiling assays were performed by the Invitrogen SelectScreen™ Services. […] The concentration of ATP was selected to be equal to the KM, unless indicated otherwise.

[2] = molecular target: GSK3B (GSK3 beta) (Homo sapiens, UniProt P49841); experiment: SelectScreen kinase assay
Description: as §1

[3] = molecular target: PTK6 (Brk) (Homo sapiens, UniProt Q13882); experiment: SelectScreen kinase assay
Sequence of PTK6 (Brk) (Q13882 whole entry): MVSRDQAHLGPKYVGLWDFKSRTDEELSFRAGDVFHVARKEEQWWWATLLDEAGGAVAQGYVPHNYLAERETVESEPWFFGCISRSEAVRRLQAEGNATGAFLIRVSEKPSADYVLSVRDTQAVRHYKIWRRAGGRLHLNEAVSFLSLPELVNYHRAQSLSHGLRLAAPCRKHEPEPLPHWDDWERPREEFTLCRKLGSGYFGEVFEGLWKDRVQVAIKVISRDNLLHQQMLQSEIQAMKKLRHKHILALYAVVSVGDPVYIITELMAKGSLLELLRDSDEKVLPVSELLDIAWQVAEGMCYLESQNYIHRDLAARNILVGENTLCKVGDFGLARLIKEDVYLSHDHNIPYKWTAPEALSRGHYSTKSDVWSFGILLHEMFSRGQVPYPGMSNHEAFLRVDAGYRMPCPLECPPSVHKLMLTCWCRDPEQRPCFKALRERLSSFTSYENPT
Description: as §1

[4] = molecular target: T1, BRSK2 (Homo sapiens, UniProt Q8IWQ3); experiment: SelectScreen kinase assay
T1 sequence (Q8IWQ3 1-736): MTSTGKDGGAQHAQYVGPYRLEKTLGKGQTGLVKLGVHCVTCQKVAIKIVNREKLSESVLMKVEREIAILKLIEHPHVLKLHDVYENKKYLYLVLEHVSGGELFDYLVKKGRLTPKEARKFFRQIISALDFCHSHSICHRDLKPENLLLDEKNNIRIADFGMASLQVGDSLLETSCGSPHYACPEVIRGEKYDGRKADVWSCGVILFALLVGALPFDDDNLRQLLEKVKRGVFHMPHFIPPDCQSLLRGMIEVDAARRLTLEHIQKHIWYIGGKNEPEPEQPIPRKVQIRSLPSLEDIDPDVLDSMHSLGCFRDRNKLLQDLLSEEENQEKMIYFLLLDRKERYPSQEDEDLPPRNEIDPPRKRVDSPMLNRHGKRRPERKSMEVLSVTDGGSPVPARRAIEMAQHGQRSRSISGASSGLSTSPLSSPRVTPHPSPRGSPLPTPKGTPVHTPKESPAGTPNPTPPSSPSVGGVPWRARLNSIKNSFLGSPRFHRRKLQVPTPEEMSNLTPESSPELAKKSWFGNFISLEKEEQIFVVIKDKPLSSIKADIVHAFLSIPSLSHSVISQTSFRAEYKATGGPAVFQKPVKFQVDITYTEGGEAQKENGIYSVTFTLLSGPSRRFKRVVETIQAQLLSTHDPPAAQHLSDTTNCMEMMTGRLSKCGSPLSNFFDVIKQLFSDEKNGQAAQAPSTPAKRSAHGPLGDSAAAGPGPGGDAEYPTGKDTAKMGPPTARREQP
Description: as §1

[5] = molecular target: T2, TGFBR1 (ALK5) (Homo sapiens, UniProt P36897); experiment: SelectScreen kinase assay; settings: for Inhibition at 1 µM (%): LanthaScreen Binding
T2 sequence (P36897 34-503): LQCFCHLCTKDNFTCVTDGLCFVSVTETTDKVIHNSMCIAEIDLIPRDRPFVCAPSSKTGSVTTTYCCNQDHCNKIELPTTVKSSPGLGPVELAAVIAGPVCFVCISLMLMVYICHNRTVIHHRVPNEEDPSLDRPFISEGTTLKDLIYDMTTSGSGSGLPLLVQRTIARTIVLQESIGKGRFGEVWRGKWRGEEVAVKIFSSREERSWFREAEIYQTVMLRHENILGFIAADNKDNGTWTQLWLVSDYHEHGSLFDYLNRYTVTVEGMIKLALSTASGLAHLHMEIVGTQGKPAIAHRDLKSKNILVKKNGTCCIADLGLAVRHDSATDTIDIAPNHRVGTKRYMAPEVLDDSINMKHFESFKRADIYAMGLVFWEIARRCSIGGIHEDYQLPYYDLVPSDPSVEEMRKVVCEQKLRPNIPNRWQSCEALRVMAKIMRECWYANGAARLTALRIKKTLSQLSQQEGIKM
Description: as §1

[6] = molecular target: ZAK (Homo sapiens, UniProt Q9NYL2); experiment: SelectScreen kinase assay; settings: for Inhibition at 1 µM (%): LanthaScreen Binding
Sequence of ZAK (Q9NYL2 whole entry, the tested form may be a part): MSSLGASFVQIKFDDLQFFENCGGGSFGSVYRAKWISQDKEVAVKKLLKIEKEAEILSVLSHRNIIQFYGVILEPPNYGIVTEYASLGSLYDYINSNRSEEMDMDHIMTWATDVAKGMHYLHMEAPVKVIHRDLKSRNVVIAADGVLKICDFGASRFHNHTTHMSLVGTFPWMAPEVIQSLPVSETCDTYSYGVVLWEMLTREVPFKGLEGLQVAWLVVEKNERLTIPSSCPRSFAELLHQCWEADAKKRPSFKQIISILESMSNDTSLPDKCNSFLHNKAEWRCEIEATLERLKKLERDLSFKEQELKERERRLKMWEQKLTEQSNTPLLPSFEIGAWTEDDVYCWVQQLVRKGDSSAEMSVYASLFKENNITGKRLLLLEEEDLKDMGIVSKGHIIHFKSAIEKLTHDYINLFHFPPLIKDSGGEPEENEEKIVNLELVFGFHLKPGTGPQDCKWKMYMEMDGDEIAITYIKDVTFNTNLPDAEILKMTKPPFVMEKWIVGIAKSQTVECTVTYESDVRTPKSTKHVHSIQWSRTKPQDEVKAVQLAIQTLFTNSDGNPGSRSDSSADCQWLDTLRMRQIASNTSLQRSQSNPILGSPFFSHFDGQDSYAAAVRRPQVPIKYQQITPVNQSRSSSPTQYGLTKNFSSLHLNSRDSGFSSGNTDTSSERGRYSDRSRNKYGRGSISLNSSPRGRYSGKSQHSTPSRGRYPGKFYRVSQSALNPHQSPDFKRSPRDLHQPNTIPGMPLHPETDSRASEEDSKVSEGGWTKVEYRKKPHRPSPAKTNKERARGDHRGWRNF
Description: as §1

[7] = molecular target: FES^S700C (Homo sapiens, UniProt P07332, S700C); experiment: In vitro TR-FRET kinase assay; format: biochemical; design: human FES cDNA encoding residues 448–822 or human FER cDNA encoding residues 448–820 was amplified by PCR; made in house; host or cells: E. coli BL21(DE3), co-expressing YopH phosphatase; settings: IC50 on FES^WT divided by IC50 on FES^S700C
[8] = molecular target: GSG2 (Haspin) (Homo sapiens, UniProt Q8TF76); experiment: SelectScreen kinase assay
Description: as §1

[9] = molecular target: CAMK2D (CaMKII delta) (Homo sapiens, UniProt Q13557); experiment: SelectScreen kinase assay
Description: as §1

[10] = molecular target: WNK1 (Homo sapiens, UniProt Q9H4A3); experiment: SelectScreen kinase assay
Description: as §1

[11] = molecular target: TLK2 (Homo sapiens, UniProt Q86UE8); experiment: SelectScreen kinase assay
Description: as §1

[12] = molecular target: PIK3C2G (PI3K-C2 gamma) (Homo sapiens, UniProt O75747); experiment: SelectScreen kinase assay
Sequence of PIK3C2G (PI3K-C2 gamma) (O75747 whole entry): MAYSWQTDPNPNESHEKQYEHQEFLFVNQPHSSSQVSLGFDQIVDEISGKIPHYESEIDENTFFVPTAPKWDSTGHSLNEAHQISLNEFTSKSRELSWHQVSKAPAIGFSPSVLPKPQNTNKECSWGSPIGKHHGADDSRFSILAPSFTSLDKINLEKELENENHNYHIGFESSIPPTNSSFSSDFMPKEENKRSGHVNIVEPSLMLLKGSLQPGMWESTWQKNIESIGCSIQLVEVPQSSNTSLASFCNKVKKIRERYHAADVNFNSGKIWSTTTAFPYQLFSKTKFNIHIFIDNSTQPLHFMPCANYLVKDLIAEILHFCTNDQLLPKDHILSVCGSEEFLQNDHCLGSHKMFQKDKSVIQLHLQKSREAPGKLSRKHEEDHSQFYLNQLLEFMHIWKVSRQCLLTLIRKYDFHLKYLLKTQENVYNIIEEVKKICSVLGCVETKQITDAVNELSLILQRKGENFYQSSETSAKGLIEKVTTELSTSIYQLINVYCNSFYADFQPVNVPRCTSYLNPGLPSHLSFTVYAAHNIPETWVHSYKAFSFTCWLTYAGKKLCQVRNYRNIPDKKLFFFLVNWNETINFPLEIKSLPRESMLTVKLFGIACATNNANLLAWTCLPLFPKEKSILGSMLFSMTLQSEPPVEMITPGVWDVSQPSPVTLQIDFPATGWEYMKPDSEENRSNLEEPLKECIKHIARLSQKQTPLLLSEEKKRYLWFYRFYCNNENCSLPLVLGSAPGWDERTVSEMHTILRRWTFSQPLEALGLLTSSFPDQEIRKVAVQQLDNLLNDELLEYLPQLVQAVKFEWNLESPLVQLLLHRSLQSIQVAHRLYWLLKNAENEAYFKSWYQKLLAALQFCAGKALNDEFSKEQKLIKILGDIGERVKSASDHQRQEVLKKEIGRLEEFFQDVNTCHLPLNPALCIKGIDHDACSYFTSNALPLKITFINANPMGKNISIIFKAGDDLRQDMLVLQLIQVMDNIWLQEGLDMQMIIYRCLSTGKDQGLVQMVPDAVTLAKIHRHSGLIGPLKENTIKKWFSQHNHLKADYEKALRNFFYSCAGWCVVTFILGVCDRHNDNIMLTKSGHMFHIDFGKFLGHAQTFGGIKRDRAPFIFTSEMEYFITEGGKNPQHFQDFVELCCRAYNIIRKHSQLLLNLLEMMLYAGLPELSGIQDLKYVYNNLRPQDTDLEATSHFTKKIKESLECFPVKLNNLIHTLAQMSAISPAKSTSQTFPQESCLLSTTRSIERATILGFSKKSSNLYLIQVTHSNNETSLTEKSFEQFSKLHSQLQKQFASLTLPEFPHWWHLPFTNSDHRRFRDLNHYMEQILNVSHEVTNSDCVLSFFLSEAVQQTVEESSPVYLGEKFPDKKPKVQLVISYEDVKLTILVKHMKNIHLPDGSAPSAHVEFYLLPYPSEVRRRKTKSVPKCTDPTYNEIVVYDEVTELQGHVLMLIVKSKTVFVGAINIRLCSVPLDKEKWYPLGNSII
Description: as §1

[13] = molecular target: MAPKAPK3 (Homo sapiens, UniProt Q16644); experiment: SelectScreen kinase assay
Sequence of MAPKAPK3 (Q16644 whole entry): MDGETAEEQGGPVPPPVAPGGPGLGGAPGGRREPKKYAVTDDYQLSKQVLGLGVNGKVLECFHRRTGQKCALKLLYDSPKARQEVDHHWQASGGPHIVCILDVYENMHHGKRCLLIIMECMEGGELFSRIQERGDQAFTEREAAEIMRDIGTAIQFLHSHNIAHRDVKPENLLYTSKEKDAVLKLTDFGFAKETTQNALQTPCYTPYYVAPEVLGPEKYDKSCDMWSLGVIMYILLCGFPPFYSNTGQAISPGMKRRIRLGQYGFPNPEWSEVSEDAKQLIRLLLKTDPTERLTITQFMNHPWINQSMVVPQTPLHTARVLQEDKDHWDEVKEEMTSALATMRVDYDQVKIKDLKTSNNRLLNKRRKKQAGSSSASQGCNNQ
Description: as §1

[14] = molecular target: PIM2 (Homo sapiens, UniProt Q9P1W9); experiment: SelectScreen kinase assay
Sequence of PIM2 (Q9P1W9 whole entry): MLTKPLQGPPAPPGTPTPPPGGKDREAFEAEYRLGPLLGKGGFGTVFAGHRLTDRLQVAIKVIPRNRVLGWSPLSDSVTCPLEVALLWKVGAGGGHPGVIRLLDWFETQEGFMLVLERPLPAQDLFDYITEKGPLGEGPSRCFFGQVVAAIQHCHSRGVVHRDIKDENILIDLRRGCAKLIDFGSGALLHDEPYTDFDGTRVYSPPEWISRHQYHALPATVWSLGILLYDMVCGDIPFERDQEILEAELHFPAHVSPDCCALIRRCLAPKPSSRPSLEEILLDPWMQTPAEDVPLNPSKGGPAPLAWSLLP
Description: as §1

[15] = molecular target: PRKCG (PKC gamma) (Homo sapiens, UniProt P05129); experiment: SelectScreen kinase assay; settings: for Inhibition at 1 µM (%): PRKCG (PKC gamma), ZLYTE, ATP Km app
Description: as §1

[16] = molecular target: FGFR3 K650E (Homo sapiens, UniProt P22607, K650E); experiment: SelectScreen kinase assay; settings: for Inhibition at 1 µM (%): FGFR3 K650E, ZLYTE, ATP Km app
Sequence of FGFR3 K650E (P22607 23-806 K650E): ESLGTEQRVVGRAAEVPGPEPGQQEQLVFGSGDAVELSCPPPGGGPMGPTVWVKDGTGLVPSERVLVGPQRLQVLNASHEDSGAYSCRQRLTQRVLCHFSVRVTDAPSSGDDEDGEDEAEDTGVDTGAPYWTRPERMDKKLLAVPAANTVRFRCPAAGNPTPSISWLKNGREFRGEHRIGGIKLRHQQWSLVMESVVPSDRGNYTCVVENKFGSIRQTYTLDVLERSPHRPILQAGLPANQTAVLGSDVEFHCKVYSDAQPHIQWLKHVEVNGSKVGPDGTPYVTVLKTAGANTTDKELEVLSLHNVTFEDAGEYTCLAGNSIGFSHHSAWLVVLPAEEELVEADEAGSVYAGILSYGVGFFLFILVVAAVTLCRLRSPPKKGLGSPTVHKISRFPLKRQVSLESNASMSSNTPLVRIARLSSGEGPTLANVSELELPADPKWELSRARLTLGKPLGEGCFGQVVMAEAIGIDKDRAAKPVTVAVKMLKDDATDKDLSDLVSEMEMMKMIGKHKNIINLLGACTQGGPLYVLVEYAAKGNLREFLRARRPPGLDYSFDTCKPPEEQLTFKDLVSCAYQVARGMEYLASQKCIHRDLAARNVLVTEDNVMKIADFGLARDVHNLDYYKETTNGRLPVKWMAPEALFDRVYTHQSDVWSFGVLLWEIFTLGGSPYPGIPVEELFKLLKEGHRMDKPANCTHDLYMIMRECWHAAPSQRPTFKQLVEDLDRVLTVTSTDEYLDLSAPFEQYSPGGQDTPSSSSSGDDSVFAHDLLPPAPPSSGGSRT
Description: as §1

[17] = 1 h, 1 μM WEL028, 1 h preincubation

C#CCOc1ccc(Nc2ncc(Cl)c(Nc3ccccc3NC(=O)C=C)n2)c(OC)c1 [Compound 6]
inhibition at 1 µM [1]: 4%
inhibition at 1 µM [2, 17]: 4%
inhibition at 1 µM ([2]; read-out: Inhibition at 1 µM (%), GSK3B (GSK3 beta), 1 µM, ZLYTE, ATP Km app): 5%
Inhibition at 1 µM (%) ([3]; 1 µM, ZLYTE, ATP Km app, listed as WEL028, 1 µM): 29%
inhibition at 1 µM [3, 17]: 31%
inhibition at 1 µM ([3]; read-out: Inhibition at 1 µM (%), 1 µM, ZLYTE, ATP Km app): 33%
inhibition at 1 µM [4, 17]: 7%
Inhibition at 1 µM (%) ([4]; BRSK2, 1 µM, LanthaScreen Binding, listed as WEL028, 1 µM): 8%
inhibition at 1 µM ([4]; read-out: Inhibition at 1 µM (%), BRSK2, 1 µM, LanthaScreen Binding): 7%
Inhibition at 1 µM (%) [5]: 3%
Inhibition at 1 µM (%) ([5]; listed as WEL028, 1 µM): 8%
inhibition at 1 µM [5, 17]: 6%
Inhibition at 1 µM (%) [6]: 2%
Inhibition at 1 µM (%) ([6]; listed as WEL028, 1 µM): 6%
inhibition at 1 µM [6, 17]: 4%
Apparent fold selectivity [7]: 232 fold
inhibition at 1 µM [8, 17]: 6%
Inhibition at 1 µM (%) ([8]; GSG2 (Haspin), 1 µM, Adapta, ATP Km app): 20%
inhibition at 1 µM [9, 17]: 8%
Inhibition at 1 µM (%) ([9]; CAMK2D (CaMKII delta), 1 µM, ZLYTE, ATP Km app): 15%
Inhibition (%) ([10]; 1 μM WEL028, 1 h preincubation): 5%
Inhibition at 1 µM (%) ([10]; 1 µM, LanthaScreen Binding): 11%
Inhibition at 1 µM (%) ([11]; 1 µM, LanthaScreen Binding, listed as WEL028, 1 µM): 1%
inhibition at 1 µM [11, 17]: 0%
inhibition at 1 µM [12, 17]: -3%
Inhibition at 1 µM (%) ([12]; PIK3C2G (PI3K-C2 gamma), 1 µM, Adapta, ATP 10, listed as WEL028, 1 µM): -1% and -6%
inhibition at 1 µM [13, 17]: 9%
Inhibition at 1 µM (%) ([13]; MAPKAPK3, 1 µM, ZLYTE, ATP Km app, listed as WEL028, 1 µM): 10%
inhibition at 1 µM ([13]; read-out: Inhibition at 1 µM (%), MAPKAPK3, 1 µM, ZLYTE, ATP Km app): 9%
inhibition at 1 µM [14, 17]: -4%
Inhibition at 1 µM (%) ([14]; PIM2, 1 µM, ZLYTE, ATP Km app): -3%
inhibition at 1 µM [15, 17]: 1%
Inhibition at 1 µM (%) [15]: -3%
Inhibition at 1 µM (%) ([15]; listed as WEL028, 1 µM): 5%
inhibition at 1 µM [16, 17]: 8%
Inhibition at 1 µM (%) [16]: 12%
Inhibition at 1 µM (%) ([16]; listed as WEL028, 1 µM): 4%
